According to US8952024B2, “Herbicidal pyrimidone derivatives” (E I du Pont de Nemours and Company, priority 2009, dated 2015):

Columns and labels:
Type in all cases: in vivo
[1] = test system: cocklebur (Xanthium strumarium); assay: Test B pre-/postemergence plant response
How it was run: (§1)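 Visually scored on a 0 to 100 scale after 13 to 15 days in greenhouse versus controls. Treatments were preemergence on seeded loam/sand soil and postemergence on 1- to 4-leaf plants.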

[2] = test system: morningglory (Ipomoea coccinea); assay: Test B pre-/postemergence plant response
How it was run: as §1

[3] = test system: downy bromegrass (Bromus tectorum); assay: Test B pre-/postemergence plant response
How it was run: as §1

[4] = test system: pigweed (Amaranthus retroflexus); assay: Test B pre-/postemergence plant response
How it was run: as §1

wild oat (Avena fatua) = assay: Test B pre-/postemergence plant response
How it was run: as §1

[5] = test system: blackgrass (Alopecurus myosuroides); assay: Test B pre-/postemergence plant response
How it was run: as §1

[6] = test system: giant foxtail (Setaria faberii); assay: Test B pre-/postemergence plant response
How it was run: as §1

corn (Zea mays) = assay: Test B pre-/postemergence plant response
How it was run: as §1

[7] = test system: Italian ryegrass (Lolium multiflorum); assay: Test B pre-/postemergence plant response
How it was run: as §1

[8] = test system: Surinam grass (Brachiaria decumbens); assay: Test B pre-/postemergence plant response
How it was run: as §1

[9] = test system: chickweed (Stellaria media); assay: Test B postemergence plant response
How it was run: (§2)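 Plants at the 1- to 4-leaf stage (2 to 18 cm tall), grown in pots of peat moss/vermiculite medium with wetting agent and starter nutrients, received postemergence applications of test chemicals. After 13 to 15 days in a greenhouse, injury was rated visually against untreated controls on a 0 (no effect) to 100 (complete control) scale.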

[10] = test system: canarygrass (Phalaris minor); assay: Test B postemergence plant response
How it was run: as §2

[11] = test system: windgrass (Apera spica-venti); assay: Test B postemergence plant response; conditions: for Plant response rating, Windgrass: Postemergence
How it was run: as §2

[12] = 31 g ai/ha, postemergence, scale 0 to 100, 0 is no effect, 100 is complete control
[13] = 62 g ai/ha, postemergence, 0 is no effect, 100 is complete control, 13 to 15 days
[14] = Postemergence, 125 g ai/ha, scale 0 to 100 (0 no effect, 100 complete control)
[15] = Postemergence, 250 g ai/ha, scale 0 to 100 (0 no effect, 100 complete control)
[16] = Preemergence, 31 g ai/ha, scale 0 to 100 (0 no effect, 100 complete control)
[17] = Preemergence, 125 g ai/ha, scale 0 to 100, 0 no effect, 100 complete control
[18] = Preemergence, 250 g ai/ha, 0 to 100 scale
[19] = Preemergence, 62 g ai/ha, scale 0 to 100 (0 no effect, 100 complete control)
[20] = 250 g ai/ha, Preemergence, 0 to 100 scale
[21] = Postemergence, 31 g ai/ha, scale 0 to 100 (0 no effect, 100 complete control)
[22] = Postemergence, 62 g ai/ha, scale 0 (no effect) to 100 (complete control), 13 to 15 days
[23] = Postemergence, 125 g ai/ha, visual rating after 13 to 15 days, scale 0 (no effect) to 100 (complete control)
[24] = Postemergence, 250 g ai/ha, scale 0 to 100
[25] = Preemergence, 125 g ai/ha, 0 to 100 scale

## COCCn1c(-c2cc(F)cc(F)c2)ncc(C(=O)C2=C(O)CCCC2=O)c1=O [Compound 119]
[1]; [12]
  Plant response rating, Cocklebur: 0
[1]; [13]
  Cocklebur plant response rating (0 to 100 scale): 10
[1]; [14]
  Plant response rating, Cocklebur: 80
[1]; [15]
  Plant response rating, Cocklebur: 95
[1]; [16]
  Plant response rating, Cocklebur: 0
[1]; [17]
  Plant response rating, Cocklebur: 70
[1]; [18]
  Cocklebur plant response rating: 85
[2]; [12]
  Plant response rating, Morningglory: 10
[2]; [13]
  Morningglory plant response rating (0 to 100 scale): 60
[2]; [14]
  Plant response rating, Morningglory: 95
[2]; [15]
  Plant response rating, Morningglory: 95
[2]; [16]
  Plant response rating, Morningglory: 60
[2]; [19]
  Plant response rating, Morningglory: 95
[2]; [17]
  Plant response rating, Morningglory: 95
[2]; [18]
  Morningglory plant response rating: 95
[3]; [12]
  Plant response rating, Bromegrass, Downy: 10
[3]; [13]
  Bromegrass, Downy plant response rating (0 to 100 scale): 30
[3]; [14]
  Plant response rating, Bromegrass, Downy: 60
[3]; [15]
  Plant response rating, Bromegrass, Downy: 85
[3]; [16]
  Plant response rating, Bromegrass, Downy: 0
[3]; [19]
  Plant response rating, Bromegrass, Downy: 50
[3]; [17]
  Plant response rating, Bromegrass, Downy: 55
[3]; [18]
  Bromegrass, Downy plant response rating: 55
[4]; [12]
  Plant response rating, Pigweed: 95
[4]; [13]
  Pigweed plant response rating (0 to 100 scale): 98
[4]; [14]
  Plant response rating, Pigweed: 100
[4]; [15]
  Plant response rating, Pigweed: 100
[4]; [16]
  Plant response rating, Pigweed: 80
[4]; [19]
  Plant response rating, Pigweed: 90
[4]; [17]
  Plant response rating, Pigweed: 100
[4]; [18]
  Pigweed plant response rating: 100
Wild oat (Avena fatua); [12]
  Plant response rating, Oat, Wild: 50
Wild oat (Avena fatua); [13]
  Oat, Wild plant response rating (0 to 100 scale): 60
Wild oat (Avena fatua); [14]
  Plant response rating, Oat, Wild: 95
Wild oat (Avena fatua); [15]
  Plant response rating, Oat, Wild: 95
Wild oat (Avena fatua); [16]
  Plant response rating, Oat, Wild: 0
Wild oat (Avena fatua); [19]
  Plant response rating, Oat, Wild: 45
Wild oat (Avena fatua); [17]
  Plant response rating, Oat, Wild: 50
Wild oat (Avena fatua); [18]
  Oat, Wild plant response rating: 80
[5]; [12]
  Plant response rating, Blackgrass: 5
[5]; [13]
  Blackgrass plant response rating (0 to 100 scale): 20
[5]; [14]
  Plant response rating, Blackgrass: 50
[5]; [15]
  Plant response rating, Blackgrass: 50
[5]; [16]
  Plant response rating, Blackgrass: 30
[5]; [19]
  Plant response rating, Blackgrass: 30
[5]; [17]
  Plant response rating, Blackgrass: 50
[5]; [18]
  Blackgrass plant response rating: 70
[6]; [12]
  Plant response rating, Foxtail, Giant: 75
[6]; [13]
  Foxtail, Giant plant response rating (0 to 100 scale): 85
[6]; [14]
  Plant response rating, Foxtail, Giant: 95
[6]; [15]
  Plant response rating, Foxtail, Giant: 95
[6]; [16]
  Plant response rating, Foxtail, Giant: 55
[6]; [19]
  Plant response rating, Foxtail, Giant: 85
[6]; [17]
  Plant response rating, Foxtail, Giant: 95
[6]; [18]
  Foxtail, Giant plant response rating: 100
Corn (Zea mays); [12]
  Plant response rating, Corn: 20
Corn (Zea mays); [13]
  Corn plant response rating (0 to 100 scale): 45
Corn (Zea mays); [14]
  Plant response rating, Corn: 60
Corn (Zea mays); [15]
  Plant response rating, Corn: 70
Corn (Zea mays); [16]
  Plant response rating, Corn: 0
Corn (Zea mays); [19]
  Plant response rating, Corn: 40
Corn (Zea mays); [17]
  Plant response rating, Corn: 50
Corn (Zea mays); [18]
  Corn plant response rating: 50
[7]; [13]
  Ryegrass, Italian plant response rating (0 to 100 scale): 30
[7]; [14]
  Plant response rating, Ryegrass, Italian: 60
[7]; [15]
  Plant response rating, Ryegrass, Italian: 85
[7]; [16]
  Plant response rating, Ryegrass, Italian: 100
[7]; [19]
  Plant response rating, Ryegrass, Italian: 100
[7]; [17]
  Plant response rating, Ryegrass, Italian: 100
[7]; [18]
  Ryegrass, Italian plant response rating: 100
[8]; [13]
  Surinam Grass plant response rating (0 to 100 scale): 85
[8]; [14]
  Plant response rating, Surinam Grass: 95
[8]; [15]
  Plant response rating, Surinam Grass: 98
[8]; [16]
  Plant response rating, Surinam Grass: 90
[8]; [19]
  Plant response rating, Surinam Grass: 98
[8]; [17]
  Plant response rating, Surinam Grass: 100
[8]; [18]
  Surinam Grass plant response rating: 100
[9]; [12]
  Plant response rating, Chickweed: 70
[9]; [13]
  Chickweed plant response rating (0 to 100 scale): 80
[9]; [14]
  Plant response rating, Chickweed: 100
[9]; [15]
  Plant response rating, Chickweed: 100
[10]; [12]
  Plant response rating, Canarygrass: 5
[10]; [13]
  Canarygrass plant response rating (0 to 100 scale): 5
[10]; [14]
  Plant response rating, Canarygrass: 30
[10]; [15]
  Plant response rating, Canarygrass: 30
[11]; [13]
  Windgrass plant response rating (0 to 100 scale): 85
[11]; 125 g ai/ha, scale 0 to 100 (0 no effect, 100 complete control)
  Plant response rating, Windgrass: 100

## Cc1ccc(F)cc1-n1c(-c2ccccc2)ncc(C(=O)C2=C(O)CCCC2=O)c1=O [Compound 44]
[1]; [20]
  Plant response rating, Cocklebur: 45
[1]; [21]
  Plant response rating, Cocklebur: 80
[1]; [22]
  Plant response rating, Cocklebur: 80
[1]; [23]
  Plant response rating, Cocklebur: 90
[1]; [24]
  Cocklebur plant response rating: 98
[2]; [20]
  Plant response rating, Morningglory: 95
[2]; [22]
  Plant response rating, Morningglory: 70
[2]; [23]
  Plant response rating, Morningglory: 75
[2]; [16]
  Plant response rating, Morningglory: 0
[2]; [19]
  Plant response rating, Morningglory: 0
[2]; [25]
  Morningglory plant response rating: 50
[3]; [20]
  Plant response rating, Bromegrass, Downy: 5
[3]; [21]
  Plant response rating, Bromegrass, Downy: 40
[3]; [22]
  Plant response rating, Bromegrass, Downy: 70
[3]; [23]
  Plant response rating, Bromegrass, Downy: 80
[3]; [24]
  Bromegrass, Downy plant response rating: 85
[3]; [16]
  Plant response rating, Bromegrass, Downy: 0
[3]; [19]
  Plant response rating, Bromegrass, Downy: 0
[3]; [25]
  Bromegrass, Downy plant response rating: 0
[4]; [20]
  Plant response rating, Pigweed: 100
[4]; [22]
  Plant response rating, Pigweed: 95
[4]; [23]
  Plant response rating, Pigweed: 98
[4]; [16]
  Plant response rating, Pigweed: 98
[4]; [25]
  Pigweed plant response rating: 100
Wild oat (Avena fatua); [20]
  Plant response rating, Oat, Wild: 30
Wild oat (Avena fatua); [22]
  Plant response rating, Oat, Wild: 80
Wild oat (Avena fatua); [23]
  Plant response rating, Oat, Wild: 80
Wild oat (Avena fatua); [16]
  Plant response rating, Oat, Wild: 0
Wild oat (Avena fatua); [25]
  Oat, Wild plant response rating: 5
[5]; [20]
  Plant response rating, Blackgrass: 60
[5]; [21]
  Plant response rating, Blackgrass: 0
[5]; [22]
  Plant response rating, Blackgrass: 10
[5]; [23]
  Plant response rating, Blackgrass: 30
[5]; [24]
  Blackgrass plant response rating: 30
[5]; [16]
  Plant response rating, Blackgrass: 5
[5]; [19]
  Plant response rating, Blackgrass: 30
[5]; [25]
  Blackgrass plant response rating: 40
[6]; [20]
  Plant response rating, Foxtail, Giant: 98
[6]; [21]
  Plant response rating, Foxtail, Giant: 95
[6]; [22]
  Plant response rating, Foxtail, Giant: 95
[6]; [23]
  Plant response rating, Foxtail, Giant: 95
[6]; [24]
  Foxtail, Giant plant response rating: 98
[6]; [16]
  Plant response rating, Foxtail, Giant: 20
[6]; [19]
  Plant response rating, Foxtail, Giant: 45
[6]; [25]
  Foxtail, Giant plant response rating: 75
Corn (Zea mays); [20]
  Plant response rating, Corn: 0
Corn (Zea mays); [21]
  Plant response rating, Corn: 75
Corn (Zea mays); [22]
  Plant response rating, Corn: 80
Corn (Zea mays); [23]
  Plant response rating, Corn: 80
Corn (Zea mays); [24]
  Corn plant response rating: 85
Corn (Zea mays); [16]
  Plant response rating, Corn: 0
Corn (Zea mays); [19]
  Plant response rating, Corn: 0
Corn (Zea mays); [25]
  Corn plant response rating: 0
[7]; [20]
  Plant response rating, Ryegrass, Italian: 0
[7]; [22]
  Plant response rating, Ryegrass, Italian: 5
[7]; [23]
  Plant response rating, Ryegrass, Italian: 10
[7]; [16]
  Plant response rating, Ryegrass, Italian: 0
[7]; [25]
  Ryegrass, Italian plant response rating: 0
[8]; [20]
  Plant response rating, Surinam Grass: 100
[8]; [22]
  Plant response rating, Surinam Grass: 95
[8]; [23]
  Plant response rating, Surinam Grass: 95
[8]; [16]
  Plant response rating, Surinam Grass: 65
[8]; [25]
  Surinam Grass plant response rating: 90
[9]; [21]
  Plant response rating, Chickweed: 90
[9]; [22]
  Plant response rating, Chickweed: 95
[9]; [23]
  Plant response rating, Chickweed: 98
[9]; [24]
  Chickweed plant response rating: 100
[10]; [21]
  Plant response rating, Canarygrass: 20
[10]; [22]
  Plant response rating, Canarygrass: 20
[10]; [23]
  Plant response rating, Canarygrass: 30
[10]; [24]
  Canarygrass plant response rating: 40
[11]; 62 g ai/ha, scale 0 (no effect) to 100 (complete control), 13 to 15 days
  Plant response rating, Windgrass: 70
[11]; 125 g ai/ha, visual rating after 13 to 15 days, scale 0 (no effect) to 100 (complete control)
  Plant response rating, Windgrass: 85
